Square brackets hold non-standard residues; d marks the D form. Ends that are not written are not given here. d2Nal = N[C@H](Cc1ccc2ccccc2c1)C(=O)O
Key:
Growth Hormone release [1] = experiment: In Vivo GH Release in Rats (i.v., serum GH by RIA); set-up: species or system Sprague-Dawley rats; conditions: for In Vivo Release of Growth Hormone in Rat, GH: i.v., serum 10 min after injection
Method: Immature female Sprague-Dawley rats were obtained from the Charles River Laboratories (Wilmington, Mass.). After arrival they were housed at 25° C. with a 14:10 hour light:dark cycle. Water and Purina rat chow were available ad libitum. Pups were kept with their mothers until 21 days of age.
Twenty-six day old rats, six rats per treatment group, were anesthetized interperitoneally with 50 mg/kg of pentobarbital 20 minutes prior to i.v. treatment with peptide. Normal saline with 0.1% gelatin was the vehicle for intravenous (i.v.) injections of the peptides. The anesthetized rats, weighing 55-65 grams, were injected i.v. with the quantity of grown hormone releasing compounds indicated in Table 3. Injection was made as a 0.1 mL solution into the jugular vein.
All animals were sacrificed by guillotine 10 minutes after final test injection (see Table 3). Trunk blood for the determination of blood GH levels was collected following decapitation. After allowing the blood to clot, it was centrifuged and the serum was separated from the clot. Serum was kept frozen until the day of sampling for radioimmunoassay (RIA) determination of growth hormone levels according to the following procedure, as developed by the National Institute of Arthritis, Diabetes and Digestive and Kidney Diseases (NIADDK).
Reagents are generally added to the RIA analysis tubes at a single sitting, at refrigerator temperature (about 4° C.) in the following sequence: • (a) buffer, • (b) “cold” (i.e., non-radioactive) standard or unknown serum sample to be analyzed, • (c) radio-iodinated growth hormone antigen, and • (d) growth hormone antiserum.
Reagent addition is generally carried out so that there is achieved a final RIA tube dilution of about 1:30,000 (antiserum to total liquid volume; vol:vol).
The mixed reagents are then typically incubated at room temperature (about 25° C.) for about 24 hours prior to addition of a second antibody (e.g., goat or rabbit anti-monkey gamma globulin serum) which binds to and causes precipitation of the complexed growth hormone antiserum. Precipitated contents of the RIA tubes are then analyzed for the number of counts in a specified period of time in a gamma scintillation counter. A standard curve is prepared by plotting number of radioactive counts versus growth hormone (GH) level. GH levels of unknown are then determined by reference to the standard curve.
Serum GH was measured by RIA with reagents provided by the National Hormone and Pituitary Program.
Serum levels in Tables 3 and 4 are recorded in ng/mL in terms of the rat GH standard of 0.61 International Units/mg (IU/mg). Data is recorded as the mean ±standard error of the mean (SEM). Statistical analysis was performed with Student's t-test. In Table 3, the results shown are the average of studies with six rats.

[2] = test system: short-statured children with various degrees of GH deficiency; conditions: cited from earlier work
Growth Hormone release [3] = experiment: In Vitro Release of Growth Hormone in Rat; assay type: cell-based
Method: (§1) In vitro and in vivo activity of certain compounds were determined in rats and adult beagle dogs (in vivo activity only).

Growth Hormone release [4] = experiment: In Vivo Release of Growth Hormone in Adult Beagle Dogs; set-up: unit not given here
Method: as §1

For [dA][d2Nal]AW[dF]K-NH2 [GHRP-2], the “GH ng/ml, GHRP-2 (.03)” value (Growth Hormone release [1]; rat, GHRP-2 reference standard, dose (.03) (dose unit not given)) is given as 811 ng/mL, the “effect on height velocity compared with chronic recombinant human growth hormone (rhGH) administration” value ([2]; in vivo) is given as “less effective” and the “rate of height velocity” value ([2]; short-statured children, 2-3 times per day over a 2 year period) is given as “accelerated”.

In the case of “Aib-DTrp-DTrp-Phe-Arg-5-aminopentylamide [DTrpPhe-Arg-5-amino pentamide]”, the “In Vitro Release of Growth Hormone in Rat, GH” value (from here on “In Vitro Release”) (Growth Hormone release [3]; compound at .0001 (dose unit not given)) is reported as 1228 ng/mL, the “In Vitro Release” value (Growth Hormone release [3]; compound at .0003 (dose unit not given)) is reported as 1416 ng/mL and the “In Vitro Release” value (Growth Hormone release [3]; compound at .001 (dose unit not given)) is reported as 1712 ng/mL. The “In Vitro Release” value (Growth Hormone release [3]; compound at .003 (dose unit not given)) was 1648 ng/mL, the “In Vitro Release” value (Growth Hormone release [3]; compound at .01 (dose unit not given)) was 1621 ng/mL and the “In Vivo Release of Growth Hormone in Rat, GH” value (shortened to “In Vivo Release … GH”) (Growth Hormone release [1]; compound at 1 (dose unit not given)) was 2272 ng/mL. For the same substance, the “In Vivo Release … GH” value (Growth Hormone release [1]; compound at 3 (dose unit not given)) was 2929 ng/mL, the “In Vivo Release … GH” value (Growth Hormone release [1]; compound at .1 (dose unit not given)) was 262 ng/mL and the “In Vivo Release … GH” value (Growth Hormone release [1]; compound at .3 (dose unit not given)) was 274 ng/mL. The “In Vivo Release of Growth Hormone in Adult Beagle Dogs” value (Growth Hormone release [4]; oral dose 1 mg/kg, time 0 hr) was 2.5, the “In Vivo Release of Growth Hormone in Adult Beagle Dogs” value (Growth Hormone release [4]; oral dose 1 mg/kg, time 0.5 hr) was 38 and the “In Vivo Release of Growth Hormone in Adult Beagle Dogs” value (Growth Hormone release [4]; oral dose 1 mg/kg, time 1 hr) was 8.5. The “In Vivo Release of Growth Hormone in Adult Beagle Dogs” value (Growth Hormone release [4]; oral dose 1 mg/kg, time 2 hr) was 2.8, the “In Vivo Release of Growth Hormone in Adult Beagle Dogs” value (Growth Hormone release [4]; oral dose 1 mg/kg, time 3 hr) was 2.3 and the “In Vivo Release of Growth Hormone in Adult Beagle Dogs” value (Growth Hormone release [4]; oral dose 1 mg/kg, time 4 hr) was 1.4. For the same substance, the “In Vivo Release of Growth Hormone in Adult Beagle Dogs” value (Growth Hormone release [4]; oral dose 1 mg/kg, time 5 hr) was 1.7, the “In Vivo Release of Growth Hormone in Adult Beagle Dogs” value (Growth Hormone release [4]; oral dose 1 mg/kg, time 6 hr) was 2.1 and the “In Vivo Release of Growth Hormone in Adult Beagle Dogs” value (Growth Hormone release [4]; oral dose 1 mg/kg, time 7 hr) was 2. For the same substance, the “In Vivo Release of Growth Hormone in Adult Beagle Dogs” value (Growth Hormone release [4]; oral dose 1 mg/kg, time 8 hr) was 0.8, the “In Vivo Release of Growth Hormone in Adult Beagle Dogs” value (Growth Hormone release [4]; oral dose 2 mg/kg, time 0 hr) was 3.1 and the “In Vivo Release of Growth Hormone in Adult Beagle Dogs” value (Growth Hormone release [4]; oral dose 2 mg/kg, time 0.5 hr) was 83. The “In Vivo Release of Growth Hormone in Adult Beagle Dogs” value (Growth Hormone release [4]; oral dose 2 mg/kg, time 1 hr) was 20, the “In Vivo Release of Growth Hormone in Adult Beagle Dogs” value (Growth Hormone release [4]; oral dose 2 mg/kg, time 2 hr) was 6.8 and the “In Vivo Release of Growth Hormone in Adult Beagle Dogs” value (Growth Hormone release [4]; oral dose 2 mg/kg, time 3 hr) was 3.9. For the same substance, the “In Vivo Release of Growth Hormone in Adult Beagle Dogs” value (Growth Hormone release [4]; oral dose 2 mg/kg, time 4 hr) was 2.9, the “In Vivo Release of Growth Hormone in Adult Beagle Dogs” value (Growth Hormone release [4]; oral dose 2 mg/kg, time 5 hr) was 3.3 and the “In Vivo Release of Growth Hormone in Adult Beagle Dogs” value (Growth Hormone release [4]; oral dose 2 mg/kg, time 6 hr) was 3.1. The “In Vivo Release of Growth Hormone in Adult Beagle Dogs” value (Growth Hormone release [4]; oral dose 2 mg/kg, time 7 hr) was 3.3 and the “In Vivo Release of Growth Hormone in Adult Beagle Dogs” value (Growth Hormone release [4]; oral dose 2 mg/kg, time 8 hr) was 3.
